# Assay results reported in PMC6691788, “Design and synthesis of phthalazine-based compounds as potent anticancer agents with potential antiangiogenic activity via VEGFR-2 inhibition” (Journal of Enzyme Inhibition and Medicinal Chemistry, 2019).
# Key:
# [1] = tested on: HL-60(TB); experiment: NCI 60 cell panel SRB screen; format: cell-based; details: Homo sapiens; for activity at 10 µM: single dose 10 μM, read-out: percent cell growth promotion
# [2] = tested on: NCI-H322M; experiment: NCI 60 cell panel SRB screen; format: cell-based; details: Homo sapiens; for activity at 10 µM: single dose 10 μM, read-out: percent cell growth promotion
# [3] = biological target: T1, VEGFR-2 tyrosine kinase (Homo sapiens, UniProt P35968); experiment: In vitro VEGFR-2 tyrosine kinase assay (BPS Bioscience); format: biochemical; details: read-out: VEGFR-2 % inhibition; 10 μM concentration
# T1 construct: purchased BPS Bioscience 40301
# T1 sequence (P35968 20-1356): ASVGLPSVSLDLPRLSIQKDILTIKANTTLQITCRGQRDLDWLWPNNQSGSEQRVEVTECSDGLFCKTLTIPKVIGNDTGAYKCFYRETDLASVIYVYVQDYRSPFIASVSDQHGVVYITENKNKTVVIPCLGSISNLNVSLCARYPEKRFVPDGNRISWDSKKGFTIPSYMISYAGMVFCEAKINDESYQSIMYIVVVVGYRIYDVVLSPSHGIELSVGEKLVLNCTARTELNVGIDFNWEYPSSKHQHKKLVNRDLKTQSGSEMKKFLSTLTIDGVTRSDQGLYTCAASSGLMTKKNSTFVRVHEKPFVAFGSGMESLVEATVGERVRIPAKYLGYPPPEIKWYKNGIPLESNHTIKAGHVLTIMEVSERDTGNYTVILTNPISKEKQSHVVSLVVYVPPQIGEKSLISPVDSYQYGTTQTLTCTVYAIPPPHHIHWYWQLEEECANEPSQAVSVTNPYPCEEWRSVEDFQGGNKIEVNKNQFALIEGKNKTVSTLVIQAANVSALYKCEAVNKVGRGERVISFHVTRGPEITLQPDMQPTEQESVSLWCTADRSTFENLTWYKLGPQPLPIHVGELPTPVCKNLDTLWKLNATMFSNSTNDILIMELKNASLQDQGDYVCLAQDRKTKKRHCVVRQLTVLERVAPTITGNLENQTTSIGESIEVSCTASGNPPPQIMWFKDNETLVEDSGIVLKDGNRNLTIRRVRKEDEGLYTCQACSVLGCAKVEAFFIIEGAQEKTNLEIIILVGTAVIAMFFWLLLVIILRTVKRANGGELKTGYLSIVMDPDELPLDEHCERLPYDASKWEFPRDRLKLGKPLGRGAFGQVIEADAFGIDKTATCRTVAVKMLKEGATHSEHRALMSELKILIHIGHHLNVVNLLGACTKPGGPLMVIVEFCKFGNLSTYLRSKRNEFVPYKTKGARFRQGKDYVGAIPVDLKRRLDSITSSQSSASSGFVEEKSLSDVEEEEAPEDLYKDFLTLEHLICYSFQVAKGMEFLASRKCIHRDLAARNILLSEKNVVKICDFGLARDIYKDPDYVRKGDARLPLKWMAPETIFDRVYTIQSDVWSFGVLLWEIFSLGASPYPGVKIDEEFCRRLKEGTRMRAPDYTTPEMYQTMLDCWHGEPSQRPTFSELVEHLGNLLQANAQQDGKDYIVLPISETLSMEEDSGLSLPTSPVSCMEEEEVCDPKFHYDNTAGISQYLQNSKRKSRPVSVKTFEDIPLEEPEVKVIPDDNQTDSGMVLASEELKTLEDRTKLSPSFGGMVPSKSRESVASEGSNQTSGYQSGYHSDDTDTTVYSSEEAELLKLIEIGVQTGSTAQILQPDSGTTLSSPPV
# Procedure, shortened: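 For IC50, ADP formation after a 30-min 30 °C reaction was detected by ADP-Glo luminescence in duplicate, blank-subtracted and fitted as log inhibitor versus normalised response. The 10 µM single-dose test instead measured remaining ATP (Kinase-Glo Plus) after 40 min at 30 °C with poly(Glu,Tyr) substrate, 10 μM ATP, pH 7.4, 1% DMSO.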
# [4] = tested on: RPMI-8226; experiment: NCI 60 cell panel SRB screen; format: cell-based; details: Homo sapiens; for activity at 10 µM: RPMI-8226, single dose 10 μM, read-out: percent cell growth promotion
# [5] = tested on: T-47D; experiment: NCI 60 cell panel SRB screen; format: cell-based; details: Homo sapiens, T47D; for activity at 10 µM: read-out: percent cell growth promotion
# [6] = tested on: KM12; experiment: NCI 60 cell panel SRB screen; format: cell-based; details: Homo sapiens; for activity at 10 µM: KM12, single dose 10 μM, read-out: percent cell growth promotion
# [7] = tested on: RXF 393; experiment: NCI 60 cell panel SRB screen; format: cell-based; details: Homo sapiens; for activity at 10 µM: RXF 393, single dose 10 μM, read-out: percent cell growth promotion
# [8] = tested on: SK-MEL-5; experiment: NCI 60 cell panel SRB screen; format: cell-based; details: Homo sapiens; for activity at 10 µM: SK-MEL-5, read-out: percent cell growth promotion
# [9] = tested on: CCRF-CEM; experiment: NCI 60 cell panel SRB screen; format: cell-based, human; details: for activity at 10 µM: single dose 10 μM, read-out: percent cell growth promotion
# [10] = tested on: TK-10; experiment: NCI 60 cell panel SRB screen; format: cell-based, human; details: for activity at 10 µM: TK-10, single dose 10 μM, read-out: percent cell growth promotion
# [11] = tested on: HT29; experiment: NCI 60 cell panel SRB screen; format: cell-based; details: Homo sapiens, HT-29; for activity at 10 µM: HT29, single dose 10 μM, read-out: percent cell growth promotion
# [12] = tested on: NCI-H226; experiment: NCI 60 cell panel SRB screen; format: cell-based; details: Homo sapiens; for activity at 10 µM: NCI-H226, single dose 10 μM, read-out: percent cell growth promotion
# [13] = tested on: PC-3; experiment: NCI 60 cell panel SRB screen; format: cell-based; details: Homo sapiens; for activity at 10 µM: PC-3, single dose 10 μM, read-out: percent cell growth promotion
# [14] = tested on: LOX IMVI; experiment: NCI 60 cell panel SRB screen; format: cell-based; details: Homo sapiens; for activity at 10 µM: read-out: percent cell growth promotion
# [15] = tested on: OVCAR-3; experiment: NCI 60 cell panel SRB screen; format: cell-based; details: Homo sapiens; for activity at 10 µM: OVCAR-3, single dose 10 μM, read-out: percent cell growth promotion
# [16] = tested on: HCC-2998; experiment: NCI 60 cell panel SRB screen; format: cell-based; details: Homo sapiens; for activity at 10 µM: HCC-2998, single dose 10 μM, read-out: percent cell growth promotion
# [17] = tested on: NCI-H460; experiment: NCI 60 cell panel SRB screen; format: cell-based; details: Homo sapiens; for activity at 10 µM: NCI-H460, single dose 10 μM, read-out: percent cell growth promotion
# [18] = tested on: OVCAR-8; experiment: NCI 60 cell panel SRB screen; format: cell-based; details: Homo sapiens; for activity at 10 µM: OVCAR-8, single dose 10 μM, read-out: percent cell growth promotion
# [19] = tested on: SNB-19; experiment: NCI 60 cell panel SRB screen; format: cell-based; details: Homo sapiens; for activity at 10 µM: SNB-19, single dose 10 μM, read-out: percent cell growth promotion
# [20] = tested on: SR; experiment: NCI 60 cell panel SRB screen; format: cell-based; details: Homo sapiens; for activity at 10 µM: single dose 10 μM, read-out: percent cell growth promotion
# [21] = 5 log dose, 48 h, read-out: LC50 (the source's name)
structure (smiles),measurement,setting,value
"Cc1nnc(N2CCN(c3ccccn3)CC2)c2ccccc12 [Compound 8i, 1-Methyl-4–(4-(pyridin-2-yl)piperazin-1-yl)phthalazine]",activity at 10 µM,[1],108%
same,activity at 10 µM,[2],107%
same,inhibition at 10 µM,[3],6%
same,activity at 10 µM,[4],104%
same,activity at 10 µM,[5],96%
same,activity at 10 µM,[6],110%
same,activity at 10 µM,[7],98.6%
same,activity at 10 µM,[8],97%
same,activity at 10 µM,[9]; Homo sapiens,102%
same,activity at 10 µM,[10]; Homo sapiens,83.2%
same,activity at 10 µM,[11],91.2%
same,activity at 10 µM,[12],98.7%
same,activity at 10 µM,[13],100%
same,activity at 10 µM,[14],102%
same,activity at 10 µM,[15],114%
same,activity at 10 µM,[16],102%
same,activity at 10 µM,[17],103%
same,activity at 10 µM,[18],98.9%
same,activity at 10 µM,[19],101%
same,activity at 10 µM,[20],92.1%
"O=C(Nc1ccccc1)Nc1ccc(Oc2nnc(Cl)c3ccccc23)cc1 [Compound 13a, 1–(4-(4-Chlorophthalazin-1-yloxy)phenyl)-3-phenylurea]",GI50,[1]; 5 log dose,2.7 µM
same,IC (TGI),[1]; 5 log dose,> 25 µM
same,CC50,[1]; [21],> 25 µM
same,activity at 10 µM,[1],12.1%
same,GI50,[2]; 5 log dose,2.19 µM
same,IC (TGI),[2]; 5 log dose,> 25 µM
same,CC50,[2]; [21],> 25 µM
same,activity at 10 µM,[2],47.3%
same,inhibition at 10 µM,[3],24%
same,GI50,"[4]; RPMI-8226, 5 log dose",4.45 µM
same,IC (TGI),"[4]; RPMI-8226, 5 log dose",24.3 µM
same,CC50,"[4]; RPMI-8226, 5 log dose, 48 h, read-out: LC50 (the source's name)",> 25 µM
same,activity at 10 µM,[4],35.1%
same,GI50,[5],0.63 µM
same,IC (TGI),[5]; read-out: TGI,10.8 µM
same,activity at 10 µM,[5],-18%
same,CC50,"[5]; T-47D, 5 log dose, 48 h, read-out: LC50 (the source's name)",> 25 µM
same,GI50,"[6]; KM12, 5 log dose",5.51 µM
same,IC (TGI),"[6]; KM12, 5 log dose",> 25 µM
same,CC50,"[6]; KM12, 5 log dose, 48 h, read-out: LC50 (the source's name)",> 25 µM
same,activity at 10 µM,[6],43.6%
same,GI50,"[7]; RXF 393, 5 log dose",2.69 µM
same,IC (TGI),"[7]; RXF 393, 5 log dose",6.24 µM
same,CC50,"[7]; RXF 393, 5 log dose, 48 h, read-out: LC50 (the source's name)",14.5 µM
same,activity at 10 µM,[7],-3.63%
same,GI50,[8]; SK-MEL-5,4.56 µM
same,IC (TGI),"[8]; SK-MEL-5, read-out: TGI",18.6 µM
same,activity at 10 µM,[8],32.9%
same,CC50,"[8]; SK-MEL-5, 5 log dose, 48 h, read-out: LC50 (the source's name)",> 25 µM
same,TGI,[9]; 5 log dose,> 25 µM
same,GI50,"[9]; Homo sapiens, 5 log dose",4.44 µM
same,CC50,"[9]; Homo sapiens, 5 log dose, 48 h, read-out: LC50 (the source's name)",> 25 µM
same,activity at 10 µM,[9]; Homo sapiens,47.6%
same,GI50,"[10]; Homo sapiens, TK-10, 5 log dose",6.08 µM
same,CC50,"[10]; Homo sapiens, TK-10, 5 log dose, 48 h, read-out: LC50 (the source's name)",> 25 µM
same,activity at 10 µM,[10]; Homo sapiens,25.3%
same,TGI,"[10]; TK-10, 5 log dose",14.9 µM
same,GI50,"[11]; HT29, 5 log dose",5.26 µM
same,IC (TGI),"[11]; HT29, 5 log dose",> 25 µM
same,CC50,"[11]; HT29, 5 log dose, 48 h, read-out: LC50 (the source's name)",> 25 µM
same,activity at 10 µM,[11],23.8%
same,GI50,"[12]; NCI-H226, 5 log dose",1.95 µM
same,IC (TGI),"[12]; NCI-H226, 5 log dose",9.25 µM
same,CC50,"[12]; NCI-H226, 5 log dose, 48 h, read-out: LC50 (the source's name)",> 25 µM
same,activity at 10 µM,[12],8.66%
same,GI50,"[13]; PC-3, 5 log dose",3.26 µM
same,IC (TGI),"[13]; PC-3, 5 log dose",10.6 µM
same,CC50,"[13]; PC-3, 5 log dose, 48 h, read-out: LC50 (the source's name)",> 25 µM
same,activity at 10 µM,[13],25.9%
same,GI50,[14],3.46 µM
same,CC50,[14]; [21],13.4 µM
same,IC (TGI),[14]; read-out: TGI,6.08 µM
same,activity at 10 µM,[14],32.1%
same,GI50,"[15]; OVCAR-3, 5 log dose",2.64 µM
same,IC (TGI),"[15]; OVCAR-3, 5 log dose",5.97 µM
same,CC50,"[15]; OVCAR-3, 5 log dose, 48 h, read-out: LC50 (the source's name)",13.5 µM
same,activity at 10 µM,[15],25.4%
same,GI50,"[16]; HCC-2998, 5 log dose",4.2 µM
same,IC (TGI),"[16]; HCC-2998, 5 log dose",12.2 µM
same,LC50 (50% lethal concentration),"[16]; HCC-2998, 5 log dose, 48 h",> 25 µM
same,activity at 10 µM,[16],52.9%
same,GI50,"[17]; NCI-H460, 5 log dose",2.67 µM
same,IC (TGI),"[17]; NCI-H460, 5 log dose",8.65 µM
same,LC50 (concentration causing 50% cell kill),"[17]; NCI-H460, 5 log dose, 48 h",> 25 µM
same,activity at 10 µM,[17],25.2%
same,GI50,"[18]; OVCAR-8, 5 log dose",2.6 µM
same,IC (TGI),"[18]; OVCAR-8, 5 log dose",6.53 µM
same,CC50,"[18]; OVCAR-8, 5 log dose, 48 h, read-out: LC50 (the source's name)",16.4 µM
same,activity at 10 µM,[18],15.5%
same,GI50,"[19]; SNB-19, 5 log dose",1.67 µM
same,IC (TGI),"[19]; SNB-19, 5 log dose",8.46 µM
same,CC50,"[19]; SNB-19, 5 log dose, 48 h, read-out: LC50 (the source's name)",> 25 µM
same,activity at 10 µM,[19],9.64%
same,GI50,[20]; 5 log dose,1.93 µM
same,IC (TGI),[20]; 5 log dose,8.26 µM
same,CC50,[20]; [21],> 25 µM
same,activity at 10 µM,[20],18%
